According to US20190225647A1, “ANTIGENIC PEPTIDES FOR THE DIAGNOSIS, THERAPY MONITORING AND/OR TREATMENT OF PSORIASIS VULGARIS” (Ludwig-Maximilians-Universität München, priority 2015, published 2019):

B1: IFN-γ: interferon-γ, increases the expression of HLA-class I molecules (protein, UniProt P01579 24-161, looked up)
Interferon gamma: QDPYVKEAENLKKYFNAGHSDVADNGTLFLGILKNWKEESDRKIMQSQIVSFYFKLFKNFKDDQSIQKSVETIKEDMNVKFFNSNKKKRDDFEKLTNYSVTDLNVQRKAIHELIQVMAELSPAAKTGKRKRSQMLFRG

Columns and labels:
[1] = test system: CD8+ T cells from psoriasis patients; assay: Staining of PBMC from psoriasis patients with FITC-labelled HLA-C*06:02-peptide dextramers; format: binding, human; conditions: flow cytometry
Description: We used FITC-labelled HLA-C*06:02-peptide dextramers to stain CD8^+ T cells from psoriasis patients. […] Thus, the peptides can be used in complex with HLA-C dextramers to address autoreactive T cells in blood of psoriasis patients. • Autoantigenic peptides complexed with HLA-C*06:02-multimers can be used to identify autoreactive CD8^+ T cells in psoriasis. […]
Fluorescent dextramers were prepared of HLA-C*06:02 and antigenic or control peptides. […] PBMC from psoriasis patients were incubated with standard dilutions of the HLA-C*06:02-peptide dextramers and a phycoerythrin-labelled CD8 antibody and the frequency of double stained cells subsequently determined by flow cytometry on a FACScan flow cytometer. Data were analyzed by FlowJo software 887.

HLA-class I = format: cell-based; conditions: HLA-C*06:02-positive primary human melanocytes preincubated with IFN-γ
Description: When assessing the results given below, however, it needs to be considered that the percentage of activated i.e. green-fluorescing cells in this complex cell-based recombinant assay may differ between different experiments. It may be influenced by the stability of the respective hybridoma cell batch and, in co-culture experiments, by the quantitative ratio of stimulatory and hybridoma cells, which decides the probability of cell-cell contacts (Siewert et al., 2011).
We isolated primary melanocytes from the skin and seeded them in explant culture. Cell type was confirmed by the contents of brownish melanosomes and staining with a p75-specific antibody against melanocytes. […] This effect was further enhanced, when HLA-C*06:02-positive melanocytes were preincubated with interferon (IFN)-γ, which increases the expression of HLA-class I molecules (FIG. 2C). […] TCR-hybridoma activation was HLA-restricted.
(B) TCR-hybridoma activation by HLA-C*06:02-positive (left) or HLA-C*06:02-negative (right) primary human melanocytes (MC) in the absence or presence of IFN-γ or a HLA-class I blocking antibody. Frequency of NFAT-sGFP^+ hybridoma cells was assessed by flow cytometry and normalized to the maximum value induced by CD3 activation in the same experiment. […]

Row | Molecule | staining / binding of CD8+ blood T cells by HLA-C*06:02-peptide dextramers [1] | effect of IFN-γ addition on TCR-hybridoma activation (HLA-class I)
1 | VRHDGGNVL [unrelated peptide (Falk et al., 1993), HLA-C*06:02 ligand, negative control complexed with HLA-C*06:02-dextramers] | did not bind | –
2 | B1 | – | increased
